Laboratory results from paper PMC4281523 (Pharmaceutical research, 2013).

How the values were obtained:
[1] = Drug release from SEDDS during in vitro digestion, EPR; format: physicochemical
[2] = cited from earlier work
[3] = format: physicochemical; details: soybean oil in fed state medium, absence of lipolysis
[4] = format: physicochemical

Structure (SMILES)	time of leveling off of drug release [1] [min]	octanol/water partition coefficient (log P) [2]	TB uptake constant into oil, Prel [3] [×10⁻⁶ cm/s]	percentage of released drug from SEDDS ([4]; 90 minutes, absence of digestion) [%]	drug released from SEDDS ([4]; over 18 hours, absence of digestive enzyme) [%]	logP [2]
CC1(C)CC(OC(=O)c2ccccc2)CC(C)(C)N1[O] [TB, TEMPOL benzoate]	50	2.46	0.0352	9	14	
CC(C)(Sc1cc(C(C)(C)C)c(O)c(C(C)(C)C)c1)Sc1cc(C(C)(C)C)c(O)c(C(C)(C)C)c1 [Probucol]						8.92
